# Experimental data taken from ChEMBL document CHEMBL5241092, “The antibacterial activity of fluoroquinolone derivatives: An update (2018-2021)” (2021).
# Columns and labels:
# Type in all cases: functional
# [1] = test system: Escherichia coli; test: Antibacterial activity against Escherichia coli
# [2] = test system: Yersinia pseudotuberculosis; test: Antibacterial activity against Yersinia pseudotuberculosis
# [3] = test system: Klebsiella pneumoniae; test: Antibacterial activity against Klebsiella pneumoniae
# [4] = test system: Pseudomonas aeruginosa; test: Antibacterial activity against Pseudomonas aeruginosa
# [5] = test system: Staphylococcus aureus; test: Antibacterial activity against Staphylococcus aureus
# [6] = test system: Enterococcus faecalis; test: Antibacterial activity against Enterococcus faecalis
# [7] = test system: Listeria monocytogenes; test: Antibacterial activity against Listeria monocytogenes
# [8] = test system: Lactobacillus acidophilus; test: Antibacterial activity against Lactobacillus acidophilus
# [9] = test system: Bacillus subtilis; test: Antibacterial activity against Bacillus subtilis
# [10] = test system: Staphylococcus epidermidis; test: Antibacterial activity against Staphylococcus epidermidis
# [11] = test system: Bacillus cereus; test: Antibacterial activity against Bacillus cereus
Compound,MIC [1],MIC [2],MIC [3],MIC [4],MIC [5],MIC [6],MIC [7],MIC [8],MIC [9],MIC [10],MIC [11],MIC90 [1],MIC90 [4],MIC90 [5],MIC90 [10]
COc1c(N2C[C@H]3CCCN(S(=O)(=O)c4ccc(F)cc4)[C@H]3C2)c(F)cc2c(=O)c(C(=O)O)cn(C3CC3)c12,< 2.42 µg/mL,< 2.42 µg/mL,< 2.42 µg/mL,< 2.42 µg/mL,< 2.42 µg/mL,< 2.42 µg/mL,< 2.42 µg/mL,< 2.42 µg/mL,–,–,–,–,–,–,–
O=C(O)c1cn(C2CC2)c2cc(N3CCN(Cn4nc(-c5cccnc5)oc4=S)CC3)c(F)cc2c1=O,0.031 µg/mL,–,–,0.031 µg/mL,0.031 µg/mL,–,–,–,0.031 µg/mL,–,–,–,–,–,–
O=C(O)c1cn(-c2ccc(F)cc2)c2cc(N3CCN(C/C(=N/O)c4ccccc4)CC3)c(F)cc2c1=O,–,–,–,–,< 0.125 µg/mL,–,–,–,< 0.125 µg/mL,< 0.125 µg/mL,–,–,–,–,–
COc1ccc(C(=O)N2CCC[C@@H]3CN(c4c(F)cc5c(=O)c(C(=O)O)cn(C6CC6)c5c4OC)C[C@@H]32)cc1,< 1.23 µg/mL,< 1.23 µg/mL,< 1.23 µg/mL,< 1.23 µg/mL,≤ 1.23 µg/mL,≤ 1.23 µg/mL,≤ 1.23 µg/mL,< 1.23 µg/mL,–,–,≤ 1.23 µg/mL,–,–,–,–
O=C(O)c1cn(C2CC2)c2cc(N3CCN(Cn4nc(-c5ccccn5)oc4=S)CC3)c(F)cc2c1=O,0.031 µg/mL,–,–,0.031 µg/mL,0.031 µg/mL,–,–,–,0.031 µg/mL,–,–,–,–,–,–
COc1c(N2C[C@H]3CCCN(C(=O)c4ccccc4)[C@H]3C2)c(F)cc2c(=O)c(C(=O)O)cn(C3CC3)c12,< 1.23 µg/mL,< 1.23 µg/mL,< 1.23 µg/mL,< 1.23 µg/mL,< 1.23 µg/mL,< 1.23 µg/mL,< 1.23 µg/mL,< 1.23 µg/mL,–,–,< 1.23 µg/mL,–,–,–,–
COc1c(N2C[C@H]3CCCN(Cc4ccc(C)cc4)[C@H]3C2)c(F)cc2c(=O)c(C(=O)O)cn(C3CC3)c12,< 2.39 µg/mL,< 2.39 µg/mL,< 2.39 µg/mL,< 2.39 µg/mL,< 2.39 µg/mL,< 2.39 µg/mL,< 2.39 µg/mL,< 2.39 µg/mL,–,–,–,–,–,–,–
CC[C@H](C)[C@H](NC(=O)[C@H](CCCCN)NC(=O)[C@H](CCCCN)NC(=O)[C@H](C)NC(=O)[C@H](CC(C)C)NC(=O)[C@H](C)NC(=O)[C@H](C)NC(=O)[C@H](CC(C)C)NC(=O)[C@H](C)NC(=O)[C@H](CCCCN)NC(=O)[C@H](CC(C)C)NC(=O)[C@H](CC(N)=O)NC(=O)[C@@H](NC(=O)[C@H](CCCCN)NC(=O)CNC(=O)[C@H](CC(C)C)NC(=O)[C@H](CC(C)C)NC(=O)[C@H](Cc1ccc(O)cc1)NC(=O)CNC(=O)[C@H](C)NC(=O)CCSSCCC(=O)N1CCN(c2cc3c(cc2F)c(=O)c(C(=O)O)cn3C2CC2)CC1)[C@@H](C)CC)C(=O)N[C@@H](CC(C)C)C(N)=O,–,–,–,–,–,–,–,–,–,–,–,0.025 µg/mL,0.025 µg/mL,0.025 µg/mL,0.025 µg/mL
COc1c(N2C[C@H]3CCCN(S(=O)(=O)c4ccc([N+](=O)[O-])cc4)[C@H]3C2)c(F)cc2c(=O)c(C(=O)O)cn(C3CC3)c12,< 2.42 µg/mL,< 2.42 µg/mL,< 2.42 µg/mL,< 2.42 µg/mL,< 2.42 µg/mL,< 2.42 µg/mL,< 2.42 µg/mL,< 2.42 µg/mL,–,–,–,–,–,–,–
COc1c(N2C[C@H]3CCCN(Cc4ccc([N+](=O)[O-])cc4)[C@H]3C2)c(F)cc2c(=O)c(C(=O)O)cn(C3CC3)c12,< 2.39 µg/mL,< 2.39 µg/mL,< 2.39 µg/mL,< 2.39 µg/mL,< 2.39 µg/mL,< 2.39 µg/mL,< 2.39 µg/mL,< 2.39 µg/mL,–,–,–,–,–,–,–
CCn1c(S)nnc1CN1CCN(c2cc3c(cc2F)c(=O)c(C(=O)O)cn3CC)CC1,< 0.24 µg/mL,< 0.24 µg/mL,–,< 0.24 µg/mL,< 0.24 µg/mL,< 0.24 µg/mL,–,–,–,–,< 0.24 µg/mL,–,–,–,–
CC(=O)C(C(C)=O)C(=O)c1cn(C2CC2)c2cc(N3CCN(/N=N/c4nc(C)cc(C)n4)CC3)c(F)cc2c1=O,–,–,–,–,0.015 µg/mL,–,–,–,0.015 µg/mL,0.015 µg/mL,–,–,–,–,–
COc1c(N2C[C@@H]3CCCN[C@@H]3C2)c(F)cc2c(=O)c(C(=O)O)cn(C3CC3)c12 [MOXIFLOXACIN],–,–,–,–,–,< 0.6 µg/mL,< 0.6 µg/mL,–,–,–,< 0.6 µg/mL,–,–,–,–
COc1c(N2C[C@H]3CCCN(S(=O)(=O)c4ccc(Br)cc4)[C@H]3C2)c(F)cc2c(=O)c(C(=O)O)cn(C3CC3)c12,< 2.42 µg/mL,< 2.42 µg/mL,< 2.42 µg/mL,< 2.42 µg/mL,< 2.42 µg/mL,< 2.42 µg/mL,< 2.42 µg/mL,< 2.42 µg/mL,–,–,–,–,–,–,–
COc1ccc(S(=O)(=O)N2CCC[C@@H]3CN(c4c(F)cc5c(=O)c(C(=O)O)cn(C6CC6)c5c4OC)C[C@@H]32)cc1,< 2.42 µg/mL,< 2.42 µg/mL,< 2.42 µg/mL,< 2.42 µg/mL,< 2.42 µg/mL,< 2.42 µg/mL,< 2.42 µg/mL,< 2.42 µg/mL,–,–,–,–,–,–,–
O=C(O)c1cn(-c2ccc(F)cc2)c2cc(N3CCNCC3)c(F)cc2c1=O [SARAFLOXACIN],–,–,–,–,< 0.125 µg/mL,–,–,–,< 0.125 µg/mL,< 0.125 µg/mL,–,–,–,–,–
COc1c(N2C[C@H]3CCCN(C(=O)c4ccc(C)cc4)[C@H]3C2)c(F)cc2c(=O)c(C(=O)O)cn(C3CC3)c12,< 1.23 µg/mL,< 1.23 µg/mL,< 1.23 µg/mL,< 1.23 µg/mL,≤ 1.23 µg/mL,≤ 1.23 µg/mL,≤ 1.23 µg/mL,< 1.23 µg/mL,–,–,≤ 1.23 µg/mL,–,–,–,–

Compound,MIC [1],MIC [2],MIC [3],MIC [4],MIC [5],MIC [6],MIC [7],MIC [8],MIC [9],MIC [10],MIC [11],MIC90 [1],MIC90 [4],MIC90 [5],MIC90 [10]
COc1ccc(CN2CCC[C@@H]3CN(c4c(F)cc5c(=O)c(C(=O)O)cn(C6CC6)c5c4OC)C[C@@H]32)cc1,< 2.39 µg/mL,< 2.39 µg/mL,< 2.39 µg/mL,< 2.39 µg/mL,< 2.39 µg/mL,< 2.39 µg/mL,< 2.39 µg/mL,< 2.39 µg/mL,–,–,–,–,–,–,–
COc1c(N2C[C@H]3CCCN(C(=O)c4ccc(Br)cc4)[C@H]3C2)c(F)cc2c(=O)c(C(=O)O)cn(C3CC3)c12,< 1.23 µg/mL,< 1.23 µg/mL,< 1.23 µg/mL,< 1.23 µg/mL,≤ 1.23 µg/mL,≤ 1.23 µg/mL,≤ 1.23 µg/mL,< 1.23 µg/mL,–,–,≤ 1.23 µg/mL,–,–,–,–
COc1c(N2C[C@H]3CCCN(Cc4ccc(Cl)cc4)[C@H]3C2)c(F)cc2c(=O)c(C(=O)O)cn(C3CC3)c12,< 2.39 µg/mL,< 2.39 µg/mL,< 2.39 µg/mL,< 2.39 µg/mL,< 2.39 µg/mL,< 2.39 µg/mL,< 2.39 µg/mL,< 2.39 µg/mL,–,–,–,–,–,–,–
O=C(CSC(=S)N1CCN(c2cc3c(cc2F)c(=O)c(C(=O)O)cn3C2CC2)CC1)Nc1cccc(Cl)c1,0.024 µg/mL,–,–,0.195 µg/mL,–,–,–,–,–,0.024 µg/mL,–,–,–,–,–
COc1c(N2C[C@H]3CCCN(C(=O)c4ccc(Cl)cc4)[C@H]3C2)c(F)cc2c(=O)c(C(=O)O)cn(C3CC3)c12,< 1.23 µg/mL,< 1.23 µg/mL,< 1.23 µg/mL,< 1.23 µg/mL,≤ 1.23 µg/mL,≤ 1.23 µg/mL,≤ 1.23 µg/mL,< 1.23 µg/mL,–,–,≤ 1.23 µg/mL,–,–,–,–
COc1c(N2C[C@H]3CCCN(S(=O)(=O)c4ccccc4)[C@H]3C2)c(F)cc2c(=O)c(C(=O)O)cn(C3CC3)c12,< 2.42 µg/mL,< 2.42 µg/mL,< 2.42 µg/mL,< 2.42 µg/mL,< 2.42 µg/mL,< 2.42 µg/mL,< 2.42 µg/mL,< 2.42 µg/mL,–,–,–,–,–,–,–
COc1c(N2C[C@H]3CCCN(S(=O)(=O)c4ccc(C)cc4)[C@H]3C2)c(F)cc2c(=O)c(C(=O)O)cn(C3CC3)c12,< 2.42 µg/mL,< 2.42 µg/mL,< 2.42 µg/mL,< 2.42 µg/mL,< 2.42 µg/mL,< 2.42 µg/mL,< 2.42 µg/mL,< 2.42 µg/mL,–,–,–,–,–,–,–
C=CCn1c(SCC(=O)N2CCN(c3cc4c(cc3F)c(=O)c(C(=O)O)cn4C3CC3)CC2)nnc1-c1ccccc1,1.42 µg/mL,–,1.42 µg/mL,1.42 µg/mL,1.42 µg/mL,–,–,–,–,–,–,–,–,–,–
COc1c(N2C[C@H]3CCCN(Cc4ccccc4)[C@H]3C2)c(F)cc2c(=O)c(C(=O)O)cn(C3CC3)c12,< 2.39 µg/mL,< 2.39 µg/mL,< 2.39 µg/mL,< 2.39 µg/mL,< 2.39 µg/mL,< 2.39 µg/mL,< 2.39 µg/mL,< 2.39 µg/mL,–,–,–,–,–,–,–
CCn1cc(C(=O)O)c(=O)c2cc(F)c(N3CCN(CCC(=O)Nc4ccc(/C(C)=N\OC)cc4)CC3)cc21,–,–,> 50 µg/mL,–,–,–,–,–,–,–,–,–,–,–,–
COc1c(N2C[C@H]3CCCN(Cc4ccc(Br)cc4)[C@H]3C2)c(F)cc2c(=O)c(C(=O)O)cn(C3CC3)c12,< 2.39 µg/mL,< 2.39 µg/mL,< 2.39 µg/mL,< 2.39 µg/mL,< 2.39 µg/mL,< 2.39 µg/mL,< 2.39 µg/mL,< 2.39 µg/mL,–,–,–,–,–,–,–
COc1c(N2C[C@H]3CCCN(Cc4ccc(F)cc4)[C@H]3C2)c(F)cc2c(=O)c(C(=O)O)cn(C3CC3)c12,< 2.39 µg/mL,< 2.39 µg/mL,< 2.39 µg/mL,< 2.39 µg/mL,< 2.39 µg/mL,< 2.39 µg/mL,< 2.39 µg/mL,< 2.39 µg/mL,–,–,–,–,–,–,–
COc1c(N2C[C@H]3CCCN(S(=O)(=O)c4ccc(Cl)cc4)[C@H]3C2)c(F)cc2c(=O)c(C(=O)O)cn(C3CC3)c12,< 2.42 µg/mL,< 2.42 µg/mL,< 2.42 µg/mL,< 2.42 µg/mL,< 2.42 µg/mL,< 2.42 µg/mL,< 2.42 µg/mL,< 2.42 µg/mL,–,–,–,–,–,–,–
C=Cn1c(SCC(=O)N2CCN(c3cc4c(cc3F)c(=O)c(C(=O)O)cn4C3CC3)CC2)nnc1-c1ccccc1,1.7 µg/mL,–,1.7 µg/mL,1.42 µg/mL,1.7 µg/mL,–,–,–,–,–,–,–,–,–,–
COc1c(N2C[C@H]3CCCN(C(=O)c4ccc([N+](=O)[O-])cc4)[C@H]3C2)c(F)cc2c(=O)c(C(=O)O)cn(C3CC3)c12,< 1.23 µg/mL,< 1.23 µg/mL,< 1.23 µg/mL,< 1.23 µg/mL,≤ 1.23 µg/mL,≤ 1.23 µg/mL,≤ 1.23 µg/mL,< 1.23 µg/mL,–,–,≤ 1.23 µg/mL,–,–,–,–
COc1c(N2C[C@H]3CCCN(C(=O)c4ccc(F)cc4)[C@H]3C2)c(F)cc2c(=O)c(C(=O)O)cn(C3CC3)c12,< 1.23 µg/mL,< 1.23 µg/mL,< 1.23 µg/mL,< 1.23 µg/mL,≤ 1.23 µg/mL,≤ 1.23 µg/mL,≤ 1.23 µg/mL,< 1.23 µg/mL,–,–,≤ 1.23 µg/mL,–,–,–,–
CCN1CCN(c2cc3c(cc2F)c(=O)c(C(=O)O)cn3CC)CC1,1.1 µg/mL,–,1.1 µg/mL,1.1 µg/mL,1.1 µg/mL,–,–,–,–,–,–,–,–,–,–
